According to patent publication US20210213010A1, “TLR7/8 AGONISTS AND LIPOSOME COMPOSITIONS” (Torque Therapeutics, Inc., priority 2018, published 2021):
“Also recorded” adds a separate entry of the source.

Assays:
[1] = test system: whole human blood; assay: IL-12p40 cytokine expression in stimulated whole human blood (ELISA); type: cell-based
Procedure: (§1) This example describes the general procedure used to assess the level of cytokine IL-6 and IL-12p40 expressions upon stimuli of whole human blood with small molecules or small molecules in liposomal formulations F1 and F2. 10 mM DMSO solutions of the small molecules were diluted in RPMI media (RPMI-1640, Sigma Aldrich) with 1% penicillin/streptomycin (p/s). […], of each dilution was transferred to Nunc™ 96-Well Polystyrene Conical Bottom MicroWell™ Plates in duplicates. Blood was drawn from two human donors, diluted in RPMI with 1% p/s and added to each well to reach final concentrations of 10 μM, 1 μM, and 0.1 μM of the small molecules. The plates were incubated at 37° C. in a cell incubator for 24h. The plates were then spun down in a plate centrifuge with 3200 revolutions per minute (rpm) for 10 min before 50 uL of the supernatant was transferred to new 96-well plates. The supernatant samples were subsequently stored at −80° C. until the day of cytokine measurements.
(§2) The level of cytokine expression was measured using either an IL-6 ELISA Kit (RnDSystems, cat #DY206) for IL-6, or an IL-12p40 ELISA Kit (RnDSystems, cat #DY1240) according to the manufacturer's protocols. This general procedure was used to generate the examples 24-33.

[2] = Remote loading efficiency of small molecules into liposomes (PD-10 size exclusion, HPLC); type: physicochemical
Procedure: A solution of the small molecule (modified TLR agonist) was lyophilized in a vial equipped with a magnetic stir bar over night to form a fluffy white powder. This powder was added either formulation F1 or F2 to the wanted drug/lipid ratio. The resulting mixture was stirred at 55° C. or 41° C. for formulation F1 and F2 respectively for 3h, then allowed to cool to rt before the solutions were refrigerated and stored at 4° C.
Remote loading efficiency was determined at 1 h and 3 h by taking out 100 μL of the mixture and applying this and 900 μL buffer (25 mM HEPES, 10 vol % sucrose buffer, pH 7.4) to a PD-10 column size exclusion column. Following, 10×1 mL fractions were collected, and the small molecule compound concentrations in the loading mixture and in the liposome containing fractions were determined on analytical HPLC. Loading efficiency was calculated as percentage of molecules found in liposome containing fractions out of the applied amount. The general procedure for the small molecule remote loading is visualized in FIG. 3. The general concept of remote loading imidazoquinolines in liposomes that are dialyzed against HEPES is visualized in FIG. 4.

[3] = Cryo-TEM of remote loaded liposomes (intraliposomal precipitation); type: physicochemical
Procedure: CryoTEM samples of 3 μL of liposome solution was placed on a lacy carbon 300 mesh copper TEM grid, blotted and plunge frozen in liquid ethane using a FEI Vitrobot Mark IV. Samples were imaged using a FEI Tecnai G2 20 TWIN transmission electron microscope operated at 200 keV in low dose mode with a FEI High-Sensitive (HS) 4 k×4 k Eagle camera.

[4] = test system: whole human blood; assay: IL-6 cytokine expression in stimulated whole human blood (ELISA); type: cell-based
Procedure: as §1, §2

[5] = free small molecule, 10, 1, 0.1 μM, 24 h, two donors

Remote loading efficiency 1 h (%) ([2]; formulation F1, HEPES, drug/lipid ratio 0.06, 1 h): 87% | Remote loading efficiency 3 h (%) ([2]; formulation F1, HEPES, drug/lipid ratio 0.06, 3 h): 98% | Remote loading efficiency 1 h (%) ([2]; formulation F1, HEPES, drug/lipid ratio 0.10, 1 h): 93% | Remote loading efficiency 3 h (%) ([2]; formulation F1, HEPES, drug/lipid ratio 0.10, 3 h): 95% | Remote loading efficiency 1 h (%) ([2]; formulation F1, HEPES, drug/lipid ratio 0.25, 1 h): 90% | Remote loading efficiency 3 h (%) ([2]; formulation F1, HEPES, drug/lipid ratio 0.25, 3 h): 98% | Remote loading efficiency 1 h (%) ([2]; formulation F1, HEPES, drug/lipid ratio 0.50, 1 h): 77% | Remote loading efficiency 3 h (%) ([2]; formulation F1, HEPES, drug/lipid ratio 0.50, 3 h): 70% | Remote loading efficiency 1 h (%) ([2]; formulation F1, TAPS pH 8.5, drug/lipid ratio 0.06, 1 h): 80% | Remote loading efficiency 3 h (%) ([2]; formulation F1, TAPS pH 8.5, drug/lipid ratio 0.06, 3 h): 77% | Remote loading efficiency 1 h (%) ([2]; formulation F2, HEPES, drug/lipid ratio 0.06, 1 h): 81% | Remote loading efficiency 3 h (%) ([2]; formulation F2, HEPES, drug/lipid ratio 0.06, 3 h): 81% | Remote loading efficiency 1 h (%) ([2]; formulation F2, HEPES, drug/lipid ratio 0.10, 1 h): 82% | Remote loading efficiency 3 h (%) ([2]; formulation F2, HEPES, drug/lipid ratio 0.10, 3 h): 88% | Remote loading efficiency 1 h (%) ([2]; formulation F2, HEPES, drug/lipid ratio 0.25, 1 h): 90% | Remote loading efficiency 3 h (%) ([2]; formulation F2, HEPES, drug/lipid ratio 0.25, 3 h): 94% | Remote loading efficiency 1 h (%) ([2]; formulation F2, HEPES, drug/lipid ratio 0.50, 1 h): 73% | Remote loading efficiency 3 h (%) ([2]; formulation F2, HEPES, drug/lipid ratio 0.50, 3 h): 57% | Remote loading efficiency 1 h (%) ([2]; formulation F2, TAPS pH 8.5, drug/lipid ratio 0.06, 1 h): 80% | Remote loading efficiency 3 h (%) ([2]; formulation F2, TAPS pH 8.5, drug/lipid ratio 0.06, 3 h): 70%
SMILES: CCOCc1nc2c(N)nc3ccccc3c2n1CCN [MK079-D, 1-(2-aminoethyl)-2-(ethoxymethyl)-1H-imidazo[4,5-c]quinolin-4-amine]
Expression of IL-12p40 upon stimulation of whole human blood [1, 5]: expression of IL-12p40 at 10 μM in both donors | Expression of IL-12p40 upon stimulation of whole human blood ([1]; remote loaded in formulation F1, HEPES or TAPS, drug/lipid ratio 0.06): did not lead to any expression of IL-12p40 | Expression of IL-12p40 upon stimulation of whole human blood ([1]; remote loaded in formulation F2, HEPES or TAPS, drug/lipid ratio 0.06): Induction of IL-12p40 expression was observed; also recorded: larger expression of IL-12p40 when dialyzed against HEPES compared to TAPS | Precipitation in liposomes (Cryo-TEM) ([3]; formulation F1, HEPES, drug/lipid ratio 0.25): precipitation of the small molecule inside the aqueous core of the liposomes | Precipitation in liposomes (Cryo-TEM) ([3]; formulation F1, HEPES, drug/lipid ratio 0.50): precipitation of the small molecule in the aqueous core of the liposomes | Precipitation in liposomes (Cryo-TEM) ([3]; formulation F2, drug/lipid ratio 0.25): precipitation of the small molecule in the aqueous core of the liposomes | Precipitation in liposomes (Cryo-TEM) ([3]; formulation F2, drug/lipid ratio 0.50): precipitation of the small molecule in the aqueous core of the liposomes | Expression of IL-6 upon stimulation of whole human blood [4, 5]: expression of IL-6 at 10 μM in both donors | Expression of IL-6 upon stimulation of whole human blood ([4]; remote loaded in formulation F1, HEPES, drug/lipid ratio 0.06): an expression of IL-6 at 10 μM | Expression of IL-6 upon stimulation of whole human blood ([4]; remote loaded in formulation F1, TAPS, drug/lipid ratio 0.06): no expression of IL-6 at 10 μM | Expression of IL-6 upon stimulation of whole human blood ([4]; remote loaded in formulation F2, HEPES, drug/lipid ratio 0.06): able to induce expression of IL-6 | Expression of IL-6 upon stimulation of whole human blood ([4]; remote loaded in formulation F2, TAPS, drug/lipid ratio 0.06): resulted in an expression of IL-6
